Consider 22 compounds from US20240327418A1, “MULTI-TARGET INHIBITOR TARGETING HDAC AND NAD SYNTHESIS AND USE OF MULTI-TARGET INHIBITOR” (OCEAN UNIVERSITY OF CHINA, priority 2021, published 2024).

The IC50 is the concentration that gives 50% inhibition. As a reminder, the AUC(0-t) is the area under the concentration-time curve up to a stated or last time point. High values mean more exposure, low ones less exposure. As usually defined, the Tmax is the time from dosing to the highest level. In general, Cmax refers to the maximum level reached in the sampled fluid or tissue. By CC50 is commonly meant the concentration giving 50% cytotoxicity. Higher therefore signals lower toxicity to the cells. By GI50 is commonly meant the concentration that inhibits growth by half.

The target in one series is NAMPT (Homo sapiens (Human), UniProt P43490). Nature of the series: Inhibitory activity on NAMPT. The following applies: for IC50: mean of three independent experiments. The series is classed as biochemical.
A short description of series [1]: Pharmacokinetic properties in mice. The series is classed as in vivo.
Series [2] has as its system acute myelogenous leukemia cells HL60. Nature of the series: GI50 and LC50 by NCI method, HL60. The following applies: for CC50 / GI50: Homo sapiens, HL-60, 48 hours, Cell Titer-Blue. Format: cell-based. The protocol: (§1) The median growth inhibitory concentration (GI50) and median lethal concentration (LC50) were determined by NCI method. Leukemia cell strains MV4-11, HL60, PL21, KASUMI-1, MONO-MAC-1 and NB-4 were cultured in an Iscove's Modified Dulbecco Medium (IMDM) containing 10% fetal bovine serum, were inoculated into a 96-well cell culture plate at a density of 10,000 cells/100 μL and cultured overnight. 6 wells were selected as Tz wells, 0.125 mg/mL Cell Titer-Blue dye was added, and the cells were cultured for 4 hours and then the fluorescence intensity at […] (excitation wavelength/emission wavelength) was read. Compounds of different concentrations were added to the remaining wells, and a 100% control group was set. After 48 hours of cultivation, 0.125 mg/mL Cell Titer-Blue dye was added and the fluorescence intensity at […] was read after 4 hours. The fluorescence intensity of the dosing group was represented by Ti, the fluorescence intensity of the 100% control group was represented by C, and the fluorescence intensity before dosing was represented by Tz.
(§2) If Ti≥Tz, the formula [(Ti−Tz)/(C−Tz)]×100 was used.
(§3) If Ti<Tz, the formula [(Ti−Tz)/Tz]×100 was used.
(§4) The GI50 and LC50 values of some compounds on leukemia cell strains MV4-11, HL60, PL21, KASUMI-1, MONO-MAC-1 and NB-4 are shown in FIG. 1, Table 3, FIG. 2, and Table 4.

The test system of series [3] is acute myelogenous leukemia cells MV4-11. Nature of the series: GI50 and LC50 by NCI method, MV4-11. The series is classed as cell-based. The note with it: Homo sapiens, 48 hours, Cell Titer-Blue. The protocol:
as §1, §2, §3, §4

In a further series the target is HDAC2 (Homo sapiens (Human), UniProt Q92769). Nature of the series: Inhibitory activity on HDAC2 (fluorescence enzyme assay). The following applies: read-out: IC50 HDAC2; mean of three independent experiments.
The target of the next series is HDAC1 (Homo sapiens (Human), UniProt Q13547). Nature of the series: Inhibitory activity on HDAC1 (fluorescence enzyme assay). The note with it: read-out: IC50 HDAC1; mean of three independent experiments.
The next series deals with HDAC3 (Homo sapiens (Human), UniProt O15379). Nature of the series: Inhibitory activity on HDAC3 (fluorescence enzyme assay). The following applies: read-out: IC50 HDAC3; mean of three independent experiments.
The mark [4] stands for this setting: mouse, plasma, po 20 mg/kg single dose.

HDAC2, sequence (Q92769 whole entry, species assumed): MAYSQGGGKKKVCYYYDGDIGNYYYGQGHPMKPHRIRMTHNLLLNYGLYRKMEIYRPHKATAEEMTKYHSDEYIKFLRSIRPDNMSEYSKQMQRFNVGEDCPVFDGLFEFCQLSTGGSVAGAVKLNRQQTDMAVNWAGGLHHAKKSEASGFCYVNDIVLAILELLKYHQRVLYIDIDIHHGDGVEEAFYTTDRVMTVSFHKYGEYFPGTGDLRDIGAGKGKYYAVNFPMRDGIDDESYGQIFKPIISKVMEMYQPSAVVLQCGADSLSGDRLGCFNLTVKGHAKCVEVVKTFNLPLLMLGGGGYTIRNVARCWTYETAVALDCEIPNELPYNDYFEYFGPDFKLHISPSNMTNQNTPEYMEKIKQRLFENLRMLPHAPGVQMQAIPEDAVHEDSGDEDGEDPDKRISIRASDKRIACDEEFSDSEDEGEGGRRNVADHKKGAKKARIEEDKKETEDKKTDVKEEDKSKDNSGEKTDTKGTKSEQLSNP
HDAC1, sequence (Q13547 whole entry, species assumed): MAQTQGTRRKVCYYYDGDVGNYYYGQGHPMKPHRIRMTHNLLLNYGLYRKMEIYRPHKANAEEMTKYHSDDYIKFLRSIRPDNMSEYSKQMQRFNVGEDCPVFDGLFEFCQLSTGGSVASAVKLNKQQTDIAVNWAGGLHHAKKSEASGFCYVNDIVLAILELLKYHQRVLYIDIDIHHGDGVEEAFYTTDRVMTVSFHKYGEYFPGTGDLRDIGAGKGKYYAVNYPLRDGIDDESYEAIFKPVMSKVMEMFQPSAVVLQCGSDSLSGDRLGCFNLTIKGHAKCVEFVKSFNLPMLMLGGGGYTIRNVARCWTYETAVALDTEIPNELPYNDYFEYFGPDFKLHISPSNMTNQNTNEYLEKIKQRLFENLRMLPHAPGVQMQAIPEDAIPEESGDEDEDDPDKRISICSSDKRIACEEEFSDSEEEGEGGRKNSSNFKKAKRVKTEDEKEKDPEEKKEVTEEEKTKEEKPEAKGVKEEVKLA
NAMPT, sequence (P43490 whole entry, species assumed): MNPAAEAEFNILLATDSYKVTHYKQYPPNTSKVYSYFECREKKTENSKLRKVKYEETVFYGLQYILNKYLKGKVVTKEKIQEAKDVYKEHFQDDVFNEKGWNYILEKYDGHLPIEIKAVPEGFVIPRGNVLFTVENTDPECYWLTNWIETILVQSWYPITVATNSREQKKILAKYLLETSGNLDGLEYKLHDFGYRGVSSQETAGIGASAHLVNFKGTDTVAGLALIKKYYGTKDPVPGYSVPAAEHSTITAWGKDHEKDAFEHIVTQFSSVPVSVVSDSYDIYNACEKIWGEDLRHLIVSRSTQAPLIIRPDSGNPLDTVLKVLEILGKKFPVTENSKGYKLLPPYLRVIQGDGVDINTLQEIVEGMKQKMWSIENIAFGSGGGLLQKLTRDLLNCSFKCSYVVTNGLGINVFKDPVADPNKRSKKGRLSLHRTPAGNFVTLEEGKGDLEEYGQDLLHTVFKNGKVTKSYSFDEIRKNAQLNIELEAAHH
HDAC3, sequence (O15379 whole entry, species assumed): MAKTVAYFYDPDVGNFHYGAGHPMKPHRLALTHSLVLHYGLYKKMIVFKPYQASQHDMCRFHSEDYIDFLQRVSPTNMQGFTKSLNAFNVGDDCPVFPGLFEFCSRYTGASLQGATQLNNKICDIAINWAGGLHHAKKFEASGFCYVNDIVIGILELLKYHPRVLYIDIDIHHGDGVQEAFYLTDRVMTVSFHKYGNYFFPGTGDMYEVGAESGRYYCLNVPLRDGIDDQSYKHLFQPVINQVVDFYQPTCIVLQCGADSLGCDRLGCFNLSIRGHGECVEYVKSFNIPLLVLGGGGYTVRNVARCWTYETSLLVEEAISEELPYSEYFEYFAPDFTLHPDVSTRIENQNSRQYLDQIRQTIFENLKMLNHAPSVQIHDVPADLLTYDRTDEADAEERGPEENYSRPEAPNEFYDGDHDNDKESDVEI
HDAC3, sequence (Q9Y618 395-489 partner, species assumed): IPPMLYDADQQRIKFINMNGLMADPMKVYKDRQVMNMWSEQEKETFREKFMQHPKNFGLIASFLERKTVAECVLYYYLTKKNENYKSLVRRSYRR

As to `CCCNNC(=O)/C=C/c1ccc(CNCCc2c(C)[nH]c3ccccc23)cc1` [Comparative example 2 LP97/13a, reference compound], the IC50 at NAMPT is greater than 20 µM. Also, in series [1] (setting [4]), the AUC(0-t) amounted to 242 ng·h/mL and the Tmax was determined as 30 min. The compound further gave a Cmax in series [1] (po 20 mg/kg single dose) of 45.1 ng/mL. In series [1] (po 20 mg/kg vs iv 5 mg/kg), this compound displayed an F of 19.8%.
Consider `O=C(/C=C/c1cccnc1)NCCCCC1CCN(C(=O)c2ccccc2)CC1` [FK866, reference compound], for which, in series [2], the CC50 was greater than 10 µM and the GI50 is 0.0121 µM. The same compound yielded a GI50 in series [3] of 0.00795 µM.
`CCCNNC(=O)CCNC(=O)/C=C/c1cccnc1` [LEE1, (E)-N-(3-oxo-3-(2-propylhydrazino)propyl)-3-(pyridin-3-yl) acrylamide]: the IC50 is 13.6 µM on HDAC2, greater than 10 µM at HDAC1 and 1.56 µM at HDAC3.
Taken in the same sequence, the figures for `CCCNNC(=O)CCCCNC(=O)/C=C/c1cccnc1` [LEE2, (E)-N-(5-oxo-5-(2-propylhydrazino)pentyl)-3-(pyridin-3-yl) acrylamide] were 2 µM, 0.689 µM and 0.112 µM.
In the case of `CCCNNC(=O)CCCCCCNC(=O)/C=C/c1cccnc1` [LEE3, (E)-N-(7-oxo-7-(2-propylhydrazino)heptyl)-3-(pyridin-3-yl) acrylamide], the IC50 at HDAC2 was 0.339 µM.
`CCCNNC(=O)CCCCCCCNC(=O)/C=C/c1cccnc1` [LEE4, (E)-N-(8-oxo-8-(2-propylhydrazino)octyl)-3-(pyridin-3-yl) acrylamide]: the IC50 at HDAC2 was determined as 0.506 µM; at HDAC1, 0.241 µM; at HDAC3, 0.0767 µM.
Taken in the same sequence, the figures for `CCCNNC(=O)CCCCCCNC(=O)NCc1cccnc1` [LEE5, 1-(7-oxo-7-(2-propylhydrazino)heptyl)-3-(pyridin-3-ylmethyl) urea] were 0.398 µM, 0.444 µM and 0.11 µM.
With `CCCNNC(=O)CCCCCCNC(=O)c1cc2cnccc2[nH]1` [LEE7, N-(7-oxo-7-(2-propylhydrazino)heptyl)-3H-pyrrolo[3,2-c]pyridin-2-carboxamide], in series [2], the “LC50 values in p53-null cell strain HL60 (in words)” value was “nanomolar level”, the CC50 is 0.724 µM and the GI50 was 0.158 µM. In series [3], this compound displayed a concentration for 50% growth inhibition (GI50) of 0.0647 µM and an LC50 (median lethal concentration) of 0.164 µM.
As for `Nc1ccccc1NC(=O)CCCCCCCNC(=O)/C=C/c1cccnc1` [LEE8, (E)-N-(2-aminophenyl)-8-(3-(pyridin-3-yl)acrylamido) octanamide], the figures for the IC50 on HDAC2, on HDAC1 and on HDAC3 were 0.321 µM, 0.147 µM and 0.0264 µM, respectively. Also, the GI50 in series [3] came out at 0.0312 µM. The compound further registered an LC50 (median lethal concentration) in series [3] of 0.456 µM.
On to `Nc1ccccc1NC(=O)CCCCCCCn1cc(-c2cccnc2)nn1` [LEE11, N-(2-aminophenyl)-8-(4-(pyridin-3-yl)-1H-1,2,3-triazole-1-yl) octanamide], for which the IC50 at HDAC2 amounted to 0.188 µM; on HDAC3, 0.00878 µM.
Regarding `CCCNNC(=O)c1ccc(CNC(=O)/C=C/c2ccccn2)cc1` [LEE13, (E)-N-(4-(2-propylhydrazino-1-carbonyl)benzyl)-3-(pyridin-2-yl) acrylamide], the IC50 on HDAC2 turned out to be 0.0492 µM; at HDAC1, 0.0132 µM; at HDAC3, 0.00182 µM. This compound also displayed a CC50 in series [2] greater than 10 µM. For the same compound, the GI50 was 0.129 µM in series [2] and 0.015 µM in series [3]. For the same compound, the LC50 (median lethal concentration) in series [3] came to 0.125 µM.
In the case of `CCCNNC(=O)c1ccc(CNC(=O)/C=C/c2ccncc2)cc1` [LEE14, (E)-N-(4-(2-propylhydrazino-1-carbonyl)benzyl)-3-(pyridin-4-yl)acrylamide], the IC50 on HDAC2 amounted to 0.0885 µM. Further, the half-inhibitory concentration (IC50) on HDAC1 came to 0.0127 µM. At HDAC3, the IC50 turned out to be 0.00274 µM. Also, in series [2], the “LC50 values in p53-null cell strain HL60 (in words)” value is “nanomolar level”, the CC50 was 6.06 µM and the GI50 worked out at 0.0631 µM. In series [3], this compound registered a concentration for 50% growth inhibition (GI50) of 0.0143 µM and an LC50 (median lethal concentration) of 0.0836 µM.
For the compound `CCCNNC(=O)c1ccc(CNC(=O)c2cc3cnccc3s2)cc1` [LEE19, N-(4-(2-propylhydrazin-1-carbonyl)benzyl)thiopheno[3,2-c]pyridin-2-carboxamide], the concentration for half-maximal inhibition (IC50) at HDAC2 came out at 0.06 µM; on HDAC1 it was 0.0101 µM; on HDAC3 it was 0.0012 µM. In series [2], this compound came in with a CC50 greater than 10 µM. The 50% growth inhibitory concentration (GI50) in series [2] was 0.0773 µM; in series [3], 0.054 µM. In series [3], this compound registered an LC50 (median lethal concentration) of 0.0985 µM.
`CCCNNC(=O)c1ccc(CNC(=O)c2cc3cnccc3o2)cc1` [LEE20, N-(4-(2-propylhydrazino-1-carbonyl)benzyl)furan[3,2-c]pyridine-2-carboxyamide]: the IC50 on HDAC2 was 0.0384 µM; at HDAC1 it was 0.0103 µM; at HDAC3, 0.00052 µM. Further, the CC50 in series [2] was greater than 10 µM. In series [3], this compound displayed a concentration for 50% growth inhibition (GI50) of 0.0504 µM. Moreover, the LC50 (median lethal concentration) in series [3] stood at 0.109 µM.
For the compound `CCCNNC(=O)c1ccc(CNC(=O)c2cc3ccncc3[nH]2)cc1` [LEE21, N-(4-(2-propylhydrazino-1-carbonyl)benzyl)-1H-pyrrolo[2,3-c]pyridine-2-carboxamide], the IC50 on HDAC2 stood at 0.0515 µM; on HDAC1 it was 0.00817 µM; on HDAC3, 0.00242 µM. The compound further gave a CC50 in series [2] greater than 10 µM. The 50% growth inhibitory concentration (GI50) in series [2] worked out at 0.0815 µM; in series [3] it was 0.0254 µM. For the same compound, in series [3], the LC50 (median lethal concentration) stood at 0.058 µM.
Take `CCCNNC(=O)c1ccc(CNC(=O)CCCCCCCNC(=O)/C=C/c2cccnc2)cc1` [LEE37, (E)-N-(4-(2-propylhydrazino-1-carbonyl)benzyl)-8-(3-(pyridine-3-yl)acrylamido) octanamide]: the IC50 on HDAC2 turned out to be 0.0841 µM; on HDAC1, 0.0178 µM; on HDAC3, 0.00198 µM.
Taken in the same sequence, the figures for `CCCNNC(=O)c1ccc(NC(=O)CCCCCCCNC(=O)/C=C/c2cccnc2)cc1` [LEE38, (E)-N-(4-(2-propylhydrazino-1-carbonyl)phenyl)-8-(3-(pyridine-3-yl)acrylamido) amide] were 0.539 µM, 0.62 µM and 0.0974 µM.
Taken in the same sequence, the figures for `CCCNNC(=O)c1ccc(CNC(=O)CCCCCCNC(=O)/C=C/c2cccnc2)cc1` [LEE39, (E)-N-(4-(2-propylhydrazino-1-carbonyl)benzyl)-7-(3-(pyridine-3-yl)acrylamido) heptanamide] were 1.18 µM, 0.501 µM and 0.0843 µM.
For the compound `CCCNNC(=O)c1ccc(NC(=O)CCCCCCNC(=O)/C=C/c2cccnc2)cc1` [LEE40, (E)-N-(4-(2-propylhydrazino-1-carbonyl)phenyl)-7-(3-(pyridine-3-yl)acrylamido) heptamide], the IC50 at HDAC2 was 0.123 µM; on HDAC3, 0.0124 µM. The GI50 in series [3] was 0.0157 µM.
Regarding `CCCNNC(=O)c1ccc(NC(=O)CCCCCCCn2cc(-c3cccnc3)nn2)cc1` [LEE41, N-(4-(2-propylhydrazino-1-carbonyl)phenyl)-8-(4-(pyridin-3-yl)-1H-1,2,3-triazole-1-yl) octanamide], the IC50 was determined as 0.0787 µM on HDAC2, 0.018 µM on HDAC1 and 0.00108 µM on HDAC3.
Turning to `COC(=O)c1ccc(CNC(=O)/C=C/c2cccnc2)cc1` [LEE43, methyl (E)-4-((3-(pyridine-3-yl)acrylamido)methyl) benzoate], at NAMPT, the “inhibitory activity against NAMPT (in words)” value was “micromolar level” and the IC50 came to 4.67 µM.
On the same counts, the results for `COC(=O)c1ccc(CNC(=O)c2cc3cnccc3[nH]2)cc1` [LEE44, methyl 4-((1H-pyrrolo[3,2-c]pyridine-2-carbonylamide)methyl) benzoate] are “micromolar level” and 6.71 µM.
